Results taken from the supplement of paper PMC4862054.

Each compound was assayed on BT-474 (assay: normalised viability (% of control), CellTiter-Blue; higher = more viable cells (100 = DMSO, 0 = benzethonium chloride kill control)). Conditions: incubation time: 72 h.
Experimental: (§1)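 DSRT, CellTiter-Blue viability, 72 h incubation. Signal is normalised to DMSO and benzethonium chloride controls. Value is the normalised response at dose 1.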

Row | SMILES | normalised viability [%]
1 | C=C1C[C@@H]2[C@H](CC[C@]3(C)C(=O)CC[C@@H]23)[C@@]2(C)C=CC(=O)C=C12 [Exemestane] (1 nM) | 81.5
2 | O=C(Nc1ccncc1)C(=O)c1cn(Cc2ccc(Cl)cc2)c2ccccc12 [Indibulin] (1 nM) | 104
3 | NC(=O)c1ccc(I)c([N+](=O)[O-])c1 [Iniparib] (1 nM) | 92.8
4 | Oc1ccc2c(c1)CC[C@H](c1ccccc1)[C@@H]2c1ccc(OCCN2CCCC2)cc1 [Lasofoxifene] (0.1 nM) | 107
5 | Cc1ccc(NC(=O)c2ccc(CN3CCN(C)CC3)cc2)cc1Nc1nc(-c2cccnc2)cs1 [Masitinib] (1 nM) | 102
6 | O=C(Nc1cccnc1)N1CCC(Cc2cccc(Oc3ccc(C(F)(F)F)cn3)c2)CC1 [PF-3845] (1 nM) | 70.3
7 | Cc1[nH]c2ccccc2c1CCNCc1ccc(/C=C/C(=O)NO)cc1 [Panobinostat] (0.1 nM) | 102
8 | COCC1(CO)C(=O)C2CCN1CC2 (centres undefined) [Prima-1 Met] (1 nM) | 96.1

These compounds were tested on HCC1143 in the same assay as above. Conditions: incubation time: 72 h.
Experimental: as §1

Row | SMILES | normalised viability [%]
9 | C=C1C[C@@H]2[C@H](CC[C@]3(C)C(=O)CC[C@@H]23)[C@@]2(C)C=CC(=O)C=C12 [Exemestane] (1 nM) | 85.9
10 | O=C(Nc1ccncc1)C(=O)c1cn(Cc2ccc(Cl)cc2)c2ccccc12 [Indibulin] (1 nM) | 95.7
11 | NC(=O)c1ccc(I)c([N+](=O)[O-])c1 [Iniparib] (1 nM) | 97.1
12 | Oc1ccc2c(c1)CC[C@H](c1ccccc1)[C@@H]2c1ccc(OCCN2CCCC2)cc1 [Lasofoxifene] (0.1 nM) | 76.4
13 | Cc1ccc(NC(=O)c2ccc(CN3CCN(C)CC3)cc2)cc1Nc1nc(-c2cccnc2)cs1 [Masitinib] (1 nM) | 89.9
14 | O=C(Nc1cccnc1)N1CCC(Cc2cccc(Oc3ccc(C(F)(F)F)cn3)c2)CC1 [PF-3845] (1 nM) | 92.8
15 | Cc1[nH]c2ccccc2c1CCNCc1ccc(/C=C/C(=O)NO)cc1 [Panobinostat] (0.1 nM) | 104
16 | COCC1(CO)C(=O)C2CCN1CC2 (centres undefined) [Prima-1 Met] (1 nM) | 91.1

Each compound was assayed on CAL-120 in the same assay as above. Conditions: incubation time: 72 h.
Experimental: as §1

Row | SMILES | normalised viability [%]
17 | C=C1C[C@@H]2[C@H](CC[C@]3(C)C(=O)CC[C@@H]23)[C@@]2(C)C=CC(=O)C=C12 [Exemestane] (1 nM) | 86.5
18 | O=C(Nc1ccncc1)C(=O)c1cn(Cc2ccc(Cl)cc2)c2ccccc12 [Indibulin] (1 nM) | 92.1
19 | NC(=O)c1ccc(I)c([N+](=O)[O-])c1 [Iniparib] (1 nM) | 85.1
20 | Oc1ccc2c(c1)CC[C@H](c1ccccc1)[C@@H]2c1ccc(OCCN2CCCC2)cc1 [Lasofoxifene] (0.1 nM) | 83.3
21 | Cc1ccc(NC(=O)c2ccc(CN3CCN(C)CC3)cc2)cc1Nc1nc(-c2cccnc2)cs1 [Masitinib] (1 nM) | 79.2
22 | O=C(Nc1cccnc1)N1CCC(Cc2cccc(Oc3ccc(C(F)(F)F)cn3)c2)CC1 [PF-3845] (1 nM) | 86.7
23 | Cc1[nH]c2ccccc2c1CCNCc1ccc(/C=C/C(=O)NO)cc1 [Panobinostat] (0.1 nM) | 102
24 | COCC1(CO)C(=O)C2CCN1CC2 (centres undefined) [Prima-1 Met] (1 nM) | 86.9

These compounds were tested on CAL-148 in the same assay as above. Conditions: incubation time: 72 h.
Experimental: as §1

Row | SMILES | normalised viability [%]
25 | C=C1C[C@@H]2[C@H](CC[C@]3(C)C(=O)CC[C@@H]23)[C@@]2(C)C=CC(=O)C=C12 [Exemestane] (1 nM) | 89.2
26 | O=C(Nc1ccncc1)C(=O)c1cn(Cc2ccc(Cl)cc2)c2ccccc12 [Indibulin] (1 nM) | 111
27 | NC(=O)c1ccc(I)c([N+](=O)[O-])c1 [Iniparib] (1 nM) | 93.2
28 | Oc1ccc2c(c1)CC[C@H](c1ccccc1)[C@@H]2c1ccc(OCCN2CCCC2)cc1 [Lasofoxifene] (0.1 nM) | 115
29 | Cc1ccc(NC(=O)c2ccc(CN3CCN(C)CC3)cc2)cc1Nc1nc(-c2cccnc2)cs1 [Masitinib] (1 nM) | 86.5
30 | O=C(Nc1cccnc1)N1CCC(Cc2cccc(Oc3ccc(C(F)(F)F)cn3)c2)CC1 [PF-3845] (1 nM) | 106
31 | Cc1[nH]c2ccccc2c1CCNCc1ccc(/C=C/C(=O)NO)cc1 [Panobinostat] (0.1 nM) | 106
32 | COCC1(CO)C(=O)C2CCN1CC2 (centres undefined) [Prima-1 Met] (1 nM) | 93.2

What follows are compounds tested on BT-549 in the same assay as above. Conditions: incubation time: 72 h.
Experimental: as §1

Row | SMILES | normalised viability [%]
33 | C=C1C[C@@H]2[C@H](CC[C@]3(C)C(=O)CC[C@@H]23)[C@@]2(C)C=CC(=O)C=C12 [Exemestane] (1 nM) | 114
34 | O=C(Nc1ccncc1)C(=O)c1cn(Cc2ccc(Cl)cc2)c2ccccc12 [Indibulin] (1 nM) | 100
35 | NC(=O)c1ccc(I)c([N+](=O)[O-])c1 [Iniparib] (1 nM) | 113
36 | Oc1ccc2c(c1)CC[C@H](c1ccccc1)[C@@H]2c1ccc(OCCN2CCCC2)cc1 [Lasofoxifene] (0.1 nM) | 114
37 | Cc1ccc(NC(=O)c2ccc(CN3CCN(C)CC3)cc2)cc1Nc1nc(-c2cccnc2)cs1 [Masitinib] (1 nM) | 119
38 | O=C(Nc1cccnc1)N1CCC(Cc2cccc(Oc3ccc(C(F)(F)F)cn3)c2)CC1 [PF-3845] (1 nM) | 111
39 | Cc1[nH]c2ccccc2c1CCNCc1ccc(/C=C/C(=O)NO)cc1 [Panobinostat] (0.1 nM) | 108
40 | COCC1(CO)C(=O)C2CCN1CC2 (centres undefined) [Prima-1 Met] (1 nM) | 106

These compounds were tested on HCC1937 in the same assay as above. Conditions: incubation time: 72 h.
Experimental: as §1

Row | SMILES | normalised viability [%]
41 | C=C1C[C@@H]2[C@H](CC[C@]3(C)C(=O)CC[C@@H]23)[C@@]2(C)C=CC(=O)C=C12 [Exemestane] (1 nM) | 102
42 | O=C(Nc1ccncc1)C(=O)c1cn(Cc2ccc(Cl)cc2)c2ccccc12 [Indibulin] (1 nM) | 95.8
43 | NC(=O)c1ccc(I)c([N+](=O)[O-])c1 [Iniparib] (1 nM) | 130
44 | Oc1ccc2c(c1)CC[C@H](c1ccccc1)[C@@H]2c1ccc(OCCN2CCCC2)cc1 [Lasofoxifene] (0.1 nM) | 80.3
45 | Cc1ccc(NC(=O)c2ccc(CN3CCN(C)CC3)cc2)cc1Nc1nc(-c2cccnc2)cs1 [Masitinib] (1 nM) | 72.1
46 | O=C(Nc1cccnc1)N1CCC(Cc2cccc(Oc3ccc(C(F)(F)F)cn3)c2)CC1 [PF-3845] (1 nM) | 91.6
47 | Cc1[nH]c2ccccc2c1CCNCc1ccc(/C=C/C(=O)NO)cc1 [Panobinostat] (0.1 nM) | 104
48 | COCC1(CO)C(=O)C2CCN1CC2 (centres undefined) [Prima-1 Met] (1 nM) | 74.9

Each compound was assayed on MFM-223 in the same assay as above. Conditions: incubation time: 72 h.
Experimental: as §1

Row | SMILES | normalised viability [%]
49 | C=C1C[C@@H]2[C@H](CC[C@]3(C)C(=O)CC[C@@H]23)[C@@]2(C)C=CC(=O)C=C12 [Exemestane] (1 nM) | 88.7
50 | O=C(Nc1ccncc1)C(=O)c1cn(Cc2ccc(Cl)cc2)c2ccccc12 [Indibulin] (1 nM) | 97
51 | NC(=O)c1ccc(I)c([N+](=O)[O-])c1 [Iniparib] (1 nM) | 103
52 | Oc1ccc2c(c1)CC[C@H](c1ccccc1)[C@@H]2c1ccc(OCCN2CCCC2)cc1 [Lasofoxifene] (0.1 nM) | 89.1
53 | Cc1ccc(NC(=O)c2ccc(CN3CCN(C)CC3)cc2)cc1Nc1nc(-c2cccnc2)cs1 [Masitinib] (1 nM) | 96.8
54 | O=C(Nc1cccnc1)N1CCC(Cc2cccc(Oc3ccc(C(F)(F)F)cn3)c2)CC1 [PF-3845] (1 nM) | 91.9
55 | Cc1[nH]c2ccccc2c1CCNCc1ccc(/C=C/C(=O)NO)cc1 [Panobinostat] (0.1 nM) | 104
56 | COCC1(CO)C(=O)C2CCN1CC2 (centres undefined) [Prima-1 Met] (1 nM) | 98.7

These compounds were tested on CAL-51 in the same assay as above. Conditions: incubation time: 72 h.
Experimental: as §1

Row | SMILES | normalised viability [%]
57 | C=C1C[C@@H]2[C@H](CC[C@]3(C)C(=O)CC[C@@H]23)[C@@]2(C)C=CC(=O)C=C12 [Exemestane] (1 nM) | 95.2
58 | O=C(Nc1ccncc1)C(=O)c1cn(Cc2ccc(Cl)cc2)c2ccccc12 [Indibulin] (1 nM) | 106
59 | NC(=O)c1ccc(I)c([N+](=O)[O-])c1 [Iniparib] (1 nM) | 95
60 | Oc1ccc2c(c1)CC[C@H](c1ccccc1)[C@@H]2c1ccc(OCCN2CCCC2)cc1 [Lasofoxifene] (0.1 nM) | 104
61 | Cc1ccc(NC(=O)c2ccc(CN3CCN(C)CC3)cc2)cc1Nc1nc(-c2cccnc2)cs1 [Masitinib] (1 nM) | 100
62 | O=C(Nc1cccnc1)N1CCC(Cc2cccc(Oc3ccc(C(F)(F)F)cn3)c2)CC1 [PF-3845] (1 nM) | 98.4
63 | Cc1[nH]c2ccccc2c1CCNCc1ccc(/C=C/C(=O)NO)cc1 [Panobinostat] (0.1 nM) | 110
64 | COCC1(CO)C(=O)C2CCN1CC2 (centres undefined) [Prima-1 Met] (1 nM) | 90.5

These compounds were tested on SK-BR-3 in the same assay as above. Conditions: incubation time: 72 h.
Experimental: as §1

Row | SMILES | normalised viability [%]
65 | C=C1C[C@@H]2[C@H](CC[C@]3(C)C(=O)CC[C@@H]23)[C@@]2(C)C=CC(=O)C=C12 [Exemestane] (1 nM) | 91.5
66 | O=C(Nc1ccncc1)C(=O)c1cn(Cc2ccc(Cl)cc2)c2ccccc12 [Indibulin] (1 nM) | 102
67 | NC(=O)c1ccc(I)c([N+](=O)[O-])c1 [Iniparib] (1 nM) | 92.1
68 | Oc1ccc2c(c1)CC[C@H](c1ccccc1)[C@@H]2c1ccc(OCCN2CCCC2)cc1 [Lasofoxifene] (0.1 nM) | 97.1
69 | Cc1ccc(NC(=O)c2ccc(CN3CCN(C)CC3)cc2)cc1Nc1nc(-c2cccnc2)cs1 [Masitinib] (1 nM) | 93.9
70 | O=C(Nc1cccnc1)N1CCC(Cc2cccc(Oc3ccc(C(F)(F)F)cn3)c2)CC1 [PF-3845] (1 nM) | 123
71 | Cc1[nH]c2ccccc2c1CCNCc1ccc(/C=C/C(=O)NO)cc1 [Panobinostat] (0.1 nM) | 97.2
72 | COCC1(CO)C(=O)C2CCN1CC2 (centres undefined) [Prima-1 Met] (1 nM) | 104

The compounds below were run on Hs578T in the same assay as above. Conditions: incubation time: 72 h.
Experimental: as §1

Row | SMILES | normalised viability [%]
73 | C=C1C[C@@H]2[C@H](CC[C@]3(C)C(=O)CC[C@@H]23)[C@@]2(C)C=CC(=O)C=C12 [Exemestane] (1 nM) | 112
74 | O=C(Nc1ccncc1)C(=O)c1cn(Cc2ccc(Cl)cc2)c2ccccc12 [Indibulin] (1 nM) | 111
